Common to all, as to format: cell-based, mouse
The test system of data set [1] is MEFs. As to the kind of experiment: Crystal violet cell viability assay in MEFs. The note with it: MEFs treated with metabolic inhibitors; data not shown. From the text: (§1) BMDMs derived from C57BL/6J mice (Jackson Laboratories) of 3-4 months were used. Mouse embryonic fibroblasts (NIH 3T3 cells, hereafter “MEFs”) were stably transfected with a Sleeping Beauty transposon plasmid (pLuBIG) having a bidirectional promoter driving an improved firefly luciferase gene (fLuc) and a fusion gene encoding a Blasticidin-resistance marker (BsdR) linked to eGFP (BGL). For temporal (IVIS) experiments lasting 12 days, 5,000 BGL cells were initially seeded in each well of a 96-well tissue culture plate in 200 μL if complete medium. For ATP, crystal violate, and Seahorse assays, 20,000 wild-type MEFs were seeded. For ATP, crystal violate, and cytokine/chemokine assays, 50,000 BMDMs were seeded. 60,000 BMDMs were seeded for the Seahorse assays. For IVIS experiments with glycolytic inhibitors, 20,000 BGL cells were initially seeded. Complete medium comprised DMEM medium, 10% heat inactivated fetal bovine serum (FBS), and 100 U/mL penicillin/streptomycin (all from ThermoFisher Scientific).
(§2) Cell viability was measured using the crystal violet staining assay at room temperature. 50 μL media containing cells is incubated with 150 μL of 99.9% methanol for 15 minutes. […] Absorbance (optical density) was acquired at 570 nm using the SpectraMax M3 Spectrophotometer (Molecular Devices) and SoftMax Pro software (ver. 7.0.2).

The test system of data set [2] is BMDMs. The experiment in a line: Crystal violet cell viability assay in BMDMs. The settings on record: BMDMs treated with metabolic inhibitors; data not shown.
From the text: as §1, §2

The subject of data set [3] is BMDMs. As to the kind of experiment: Cytokine and chemokine multiplex assay in BMDM supernatants.
From the text: as §1
Cytokine and chemokine levels were measured using a MILLIPLEX MAP mouse magnetic bead multiplex kit (MilliporeSigma) to assess for IL-6, MCP-1, TNF-α, IL-1β, IL-4, IL-10, IFN-γ, and 1L-13 protein expression in supernatants. Data was acquired using Luminex 200 (Luminex Corporation) by the xPONENT software (Version 3.1, Luminex Corporation). […] Values exceeding the dynamic range of the assay, in accordance with manufacturer's instruction, were excluded. Additionally, IL-6 ELISA kits (RayBiotech) for supernatants were used according to manufacturer's instructions.

Data set [4] relates to BMDMs. The experiment in a line: Seahorse assay (ECAR, PER, OCR) in BMDMs. The settings on record: PE-exposed BMDMs in presence of inhibitor.
From the text: as §1
To determine the metabolic pathways responsible for the observed bioenergetic changes, Seahorse assays were used to measure oxygen consumption rate (OCR), extracellular acidification rate (ECAR) and lactate-linked proton efflux rate (PER) in a customized medium (pH 7.4). Basal measurements of OCR, ECAR, and PER were obtained in real time using the Seahorse XFe-96 Extracellular Flux Analyzer (Agilent Technologies). Prior to running the assay, cell culture medium was washed with and replaced by the Seahorse XF DMEM medium (pH 7.4) supplemented with 25 mM D-glucose and 4 mM glutamine. The Seahorse plates were equilibrated in a non-CO2 incubator for an hour prior to the assay. The Seahorse ATP rate and cell energy phenotype assays were run according to manufacturer's instruction and all reagents for the Seahorse assays were sourced from Agilent Technologies. Wave software (Version 2.6.1) was used to export Seahorse data directly as means±standard deviation (SD).
Seahorse assays measures ECAR as an index of glycolytic flux, OCR as an index of oxidative phosphorylation and PER as an index of monocarboxylate transporter function in live cells, and are used to assess for metabolic reprogramming. […] (FIGS. 3a-c)
(§3) Preparation of ultra-high molecular weight polyethylene particles are described in Example 1 above. The bioenergetics measurements, Seahorse assay, crystal violet assay, and cytokine and chemokine assays were conducted as described in Example 1. Inhibitors rotenone, metformin, oligomycin, and antimycin A were obtained from MilliporeSigma. The reagents were reconstituted in complete medium (described above).

Data set [5] relates to MEFs. As to the kind of experiment: Total ATP levels in lysed MEFs (ATP/ADP kit). The settings on record: PE-exposed MEFs with inhibitor of mitochondrial respiration. As for the experimental part: (§4) Bioluminescence was measured using an IVIS Spectrum in vivo imaging system (PerkinElmer) after addition of 150 μg/mL of D-luciferin (PerkinElmer). Living Image (Version 4.5.2, PerkinElmer) was used for acquiring bioluminescence on the IVIS Spectrum. Standard ATP/ADP kits (Sigma-Aldrich) containing D-luciferin, luciferase, and cell lysis buffer were used according to manufacturer's instructions. Luminescence at integration time of 1,000 ms was obtained using the SpectraMax M3 Spectrophotometer (Molecular Devices) and SoftMax Pro software (ver. 7.0.2).
as §1

Data set [6] relates to BMDMs. As to the kind of experiment: Bioenergetic (ATP) levels in BMDMs. The note with it: PE-exposed BMDMs with inhibitor of mitochondrial respiration. The procedure:
as §4, §1, §3

Data set [7] deals with macrophages. As to the kind of experiment: mitoSOX Red staining for mitochondrial ROS. The settings on record: added to PE-exposed macrophages, compared to macrophages exposed to only PE. An excerpt: To test whether increased OCR at complex I (FIG. 8c) fueled ROS production in the mitochondrion, macrophages were stained with mitoSOX Red. Exposure to LPS or PE particles increased mitochondrial reactive oxygen species (ROS) relative to untreated macrophages. Addition of metformin decreased mitochondrial ROS compared to macrophages exposed to only PE. Mitochondrial membrane potential is critical for reverse electron transport (RET) at complex I, and subsequent generation of mitochondrial ROS.

Data set [8] relates to macrophages. The experiment in a line: TMRM staining for mitochondrial membrane potential. The settings on record: metformin added to exposed cells.
The mark [9] stands for this setting: 1 mM inhibitor, BMDMs exposed to ultra-high molecular weight PE particles.
Where [10] appears, read: metformin, BMDMs treated with PE.

Consider `O=CC[C@@H](O)[C@H](O)[C@H](O)CO` [2DG, 2-deoxyglucose], for which the cell viability entry in data set [1] is recorded as “did not lower”. For the same compound, the cell viability entry in data set [2] is “did not lower”. In data set [3] (setting [9]), the IL-4 result is reported as “increased”, the “expression of IL-1β” value is listed as “decreased”, the “expression of IL-6” value is “decreased” and the “expression of MCP-1” value is given as “decreased”. For the same compound, the “expression of TNF-α” value in data set [3] (setting [9]) is recorded as “decreased”.
Regarding `O=C(C=Cc1cccnc1)c1ccncc1` [3PO, 3-(3-pyridinyl)-1-(4-pyridinyl)-2-propen-1-one], the cell viability entry in data set [1] is reported as “did not lower”. The cell viability result in data set [2] was “did not lower”. Besides, in data set [3] (setting [9]), the IL-4 entry is given as “increased”, the “expression of IL-1β” value was “decreased”, the “expression of IL-6” value is “decreased” and the “expression of MCP-1” value is recorded as “decreased”. For the same compound, the “expression of TNF-α” value in data set [3] (setting [9]) is given as “decreased”.
For `NOCC(=O)O` [aminooxyacetic acid], in data set [3] (setting [9]), the IL-4 result is reported as “increased”, the IL-10 levels result was “increased”, the “expression of IL-1β” value was “decreased” and the “expression of IL-6” value was “decreased”. In data set [3] (setting [9]), the “expression of MCP-1” value is “decreased” and the “expression of TNF-α” value was “decreased”.
On to `CN(C)C(=N)N=C(N)N` [metformin], for which, in data set [4], the ECAR result was “reduced”, the OCR entry is given as “reduced” and the PER entry is given as “reduced”. Further, the “ATP levels in PE-exposed cells” value in data set [5] is listed as “did not impact”. Moreover, the “ATP levels in PE-exposed cells” value in data set [6] is “did not impact”. Further, in data set [3] (setting [10]), the IL-1β entry is reported as “decreases”, the IL-4 entry is “did not increase”, the IL-6 result is listed as “decreases” and the IL-10 result was “did not increase”. Further, in data set [3] (setting [10]), the MCP-1 entry is recorded as “decreases” and the TNF-α expression result is recorded as “not mitigated”. Besides, the “mitochondrial ROS” value in data set [7] was “decreased”. Further, the “elevated mitochondrial membrane potential” value in data set [8] is “decreases”.
As for `CC[C@H]1/C=C/C=C/C[C@@H](C)[C@H](O)[C@@](C)(O)C(=O)[C@@H](C)[C@H](O)[C@@H](C)C(=O)[C@@H](C)[C@H](O)[C@@H](C)/C=C/C(=O)O[C@@H]2[C@H](C)[C@H](CC1)O[C@]1(CC[C@H](C)[C@H](C[C@@H](C)O)O1)[C@H]2C` [oligomycin], the OCR entry in data set [4] was “affected”. Also, the “ATP levels in PE-exposed cells” value in data set [5] and in data set [6] was “did not impact” in each case.
On to `C=C(C)[C@H]1Cc2c(ccc3c2O[C@@H]2COc4cc(OC)c(OC)cc4[C@@H]2C3=O)O1` [rotenone], for which, in data set [4], the ECAR result is “did not impact”, the OCR entry is listed as “decrease” and the PER result is listed as “did not impact”. The “ATP levels in PE-exposed cells” value in data set [5] is “did not impact”. Moreover, the “ATP levels in PE-exposed cells” value in data set [6] is “did not impact”.
